Laboratory results reported in paper PMC6658998, “Pharmacological characterization of the seven human NOX isoforms and their inhibitors” (Redox Biology, 2019).

Experiments:
Type in all cases: cell-based
NOX3 [1] = biological target: T1, NOX3 (Homo sapiens, UniProt Q9HBY0); assay: WST-1 O2•- detection in tetracycline-induced NOX3 HEK293 T-REx cells
T1 sequence (Q9HBY0 1-568): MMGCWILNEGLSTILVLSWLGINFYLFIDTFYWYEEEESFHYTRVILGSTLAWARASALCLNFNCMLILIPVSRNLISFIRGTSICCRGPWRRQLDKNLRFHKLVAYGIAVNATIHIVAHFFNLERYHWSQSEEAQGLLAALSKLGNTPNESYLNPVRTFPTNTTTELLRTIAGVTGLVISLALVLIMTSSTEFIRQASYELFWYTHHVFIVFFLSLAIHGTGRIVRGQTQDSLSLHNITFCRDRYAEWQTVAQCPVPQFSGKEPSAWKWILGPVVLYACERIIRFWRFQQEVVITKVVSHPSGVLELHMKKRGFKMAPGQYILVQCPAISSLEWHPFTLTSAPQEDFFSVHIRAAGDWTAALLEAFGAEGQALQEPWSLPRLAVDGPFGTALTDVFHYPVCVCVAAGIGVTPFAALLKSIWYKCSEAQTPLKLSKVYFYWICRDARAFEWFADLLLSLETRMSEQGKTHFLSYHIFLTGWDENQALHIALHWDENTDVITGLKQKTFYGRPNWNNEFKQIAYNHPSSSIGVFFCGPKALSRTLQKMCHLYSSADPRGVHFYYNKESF
T1 sequence (P13498 1-195 partner): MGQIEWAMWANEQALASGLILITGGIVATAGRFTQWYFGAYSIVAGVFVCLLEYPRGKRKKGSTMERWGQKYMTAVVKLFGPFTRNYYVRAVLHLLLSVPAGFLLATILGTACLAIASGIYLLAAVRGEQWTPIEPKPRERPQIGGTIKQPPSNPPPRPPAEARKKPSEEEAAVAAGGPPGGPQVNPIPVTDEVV
T1 sequence (Q8NFA2 1-376 partner): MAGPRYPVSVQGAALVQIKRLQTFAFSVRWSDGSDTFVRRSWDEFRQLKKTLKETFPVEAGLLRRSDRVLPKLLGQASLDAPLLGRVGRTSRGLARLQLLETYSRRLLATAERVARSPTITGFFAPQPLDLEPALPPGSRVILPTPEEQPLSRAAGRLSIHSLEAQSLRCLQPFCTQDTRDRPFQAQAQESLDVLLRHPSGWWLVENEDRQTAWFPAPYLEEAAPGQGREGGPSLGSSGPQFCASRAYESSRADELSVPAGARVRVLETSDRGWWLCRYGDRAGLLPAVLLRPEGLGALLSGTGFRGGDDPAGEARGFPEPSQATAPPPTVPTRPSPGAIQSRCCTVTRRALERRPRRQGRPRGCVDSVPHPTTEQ
Excerpt: (§1) Compounds were dispensed prior addition of cells.

NOX3 [2] = biological target: T1, NOX3; assay: Amplex Red/HRP H2O2 detection in tetracycline-induced NOX3 HEK293 T-REx cells
Excerpt: as §1

NOX2 = biological target: T2, NOX2 (Homo sapiens, UniProt P04839); assay: NOX2-dependent oxygen consumption in PMA-activated human neutrophils (Seahorse); settings: 100 nM PMA
T2 sequence (P04839 2-570 limits assumed): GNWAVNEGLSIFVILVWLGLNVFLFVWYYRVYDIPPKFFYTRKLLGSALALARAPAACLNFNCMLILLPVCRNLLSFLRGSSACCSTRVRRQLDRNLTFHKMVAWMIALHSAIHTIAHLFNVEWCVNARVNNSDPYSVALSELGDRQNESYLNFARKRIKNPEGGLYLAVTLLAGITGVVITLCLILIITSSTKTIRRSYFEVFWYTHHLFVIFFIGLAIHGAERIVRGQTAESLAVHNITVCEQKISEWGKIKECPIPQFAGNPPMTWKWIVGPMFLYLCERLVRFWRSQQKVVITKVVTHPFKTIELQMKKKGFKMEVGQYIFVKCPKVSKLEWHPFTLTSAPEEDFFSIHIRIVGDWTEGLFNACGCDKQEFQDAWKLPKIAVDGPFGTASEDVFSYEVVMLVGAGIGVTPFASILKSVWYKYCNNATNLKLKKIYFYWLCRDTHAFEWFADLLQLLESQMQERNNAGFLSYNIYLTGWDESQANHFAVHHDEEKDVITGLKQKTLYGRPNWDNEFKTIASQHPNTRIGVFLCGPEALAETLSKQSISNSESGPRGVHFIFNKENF
T2 sequence (P13498 1-195 partner): T1 sequence (P13498 1-195 partner)
Method: Human polymorphonuclear leukocytes (PMN) were isolated from fresh whole blood collected from healthy volunteers as described. Briefly, 32 mL blood was collected in 8 mL sodium citrate (3.8%) and blood cells sedimented for 40 min with dextran T500 (4% in NaCl 0.9%). The upper yellowish fraction containing leukocytes was collected and centrifugated at 380×g for 10 min. Pellets were resuspended in PBS and separated using Ficoll Plaque™ Plus (450 ×g , with no brake) for 15 min, RT. Red blood cells were lysed by addition of 5 mL H2O for 30 s followed by addition of 5 mL NaCl 1.8%. Remaining PMN were collected by centrifugation for 10 min at 250 ×g , washed and resuspended in HBSS, counted and kept on ice for a maximum of 30 min until they were used for oxygen consumption measurement.
Oxygen consumption was determined using human neutrophils and NOX4 T-Rex HEK293 cells using the Seahorse XF24 Extracellular Flux Analyzer. Neutrophils were plated in 24-well microplates (250,000 cells/well in 200 μL HBSS) and incubated at room temperature for 15 min for attachment. The medium was changed to DMEM without sodium bicarbonate containing 10 mM Hepes prewarmed to 37 °C, and the cells were incubated for 30 min at 37 °C in a non-CO2 incubator. Basal oxygen consumption was recorded for 8 min followed by addition of compounds and 8 min preincubation. PMA (100 nM) was added where indicated and the oxygen consumption rate was determined for two cycles of 8 min each. The signal obtained from neutrophils without PMA treatment was subtracted as a blank, while the signal obtained from PMA + DMSO-treated neutrophils was considered as 100%.

[3] = WST-1, tetracycline 1 μg/mL 24 h, read-out: IC50 NOX3 (T-REx) WST-1
[4] = Amplex red/HRP, tetracycline 1 μg/mL 24 h, read-out: IC50 NOX3 (T-REx) AR

Compound | IC50 (NOX3 [1]; [3]) [µM] | IC50 (NOX3 [2]; [4]) [µM] | Inhibition of NOX2-dependent oxygen consumption (NOX2; compound 300 μM) | Inhibition of NOX2-dependent oxygen consumption (NOX2; compound 50 μM) | IC50 (NOX3 [1]) [µM] | IC50 (NOX3 [2]) [µM] | Inhibition of NOX2-dependent oxygen consumption (NOX2; concentration not given)
COc1cc(C(C)=O)ccc1O [Apocynin, apocynin] | > 50 | > 50 | only weakly |  |  |  | 
c1ccc2c(c1)[I+]c1ccccc1-2 [DPI, diphenylene iodonium chloride] |  |  |  |  | 0.2 | 2.2 | inhibited
O=c1c2ccccc2[se]n1-c1ccccc1 [Ebselen, ebselen] | 35 | 2.9 |  |  |  |  | inhibited
c1ccc(Cn2nnc3c(Sc4nc5ccccc5o4)ncnc32)cc1 [VAS2870, 3-benzyl-7-(2-benzoxazolyl)thio-1,2,3-triazolo[4,5-d]pyrimidine] | > 50 | > 50 |  |  |  |  | inhibited

Now from value to compound, other results behind:

IC50 (NOX3 [1]; [3]) [µM] | IC50 (NOX3 [2]; [4]) [µM] | Inhibition of NOX2-dependent oxygen consumption (NOX2; compound 300 μM) | Inhibition of NOX2-dependent oxygen consumption (NOX2; compound 50 μM) | Compound | IC50 (NOX3 [1]) [µM] | IC50 (NOX3 [2]) [µM] | Inhibition of NOX2-dependent oxygen consumption (NOX2; concentration not given)
> 50 | > 50 |  | only weakly | COc1cc(C(C)=O)cc(-c2cc(C(C)=O)cc(OC)c2O)c1O [Diapocynin, diapocynin] |  |  | 
> 50 | 5.7 |  | not | Cc1c2c(=O)n(-c3ccccc3Cl)[nH]c2cc(=O)n1Cc1ccccn1 [GKT136901] |  |  | 
